Results taken from patent publication US20210246144A1, “A SET OF MITOCHONDRIA-TARGETED COMPOUNDS” (MITOTECH S.A., priority 2017, published 2021).

Experiments:
[1] = tested on: mitochondrial membrane potential; experiment: mitochondrial uncoupling (protonophore), decrease of mitochondrial membrane potential; conditions: causes decrease in mitochondrial membrane potential and reduction of ROS production by mitochondria
[2] = tested on: isolated mitochondria or live cultures of human cells; conditions: cited from earlier work
[3] = tested on: isolated mitochondria; conditions: cited from earlier work
[4] = relative to the antioxidant concentrations; cited from earlier work
[5] = fluorescent uncoupler activity
Experimental: (§1) Dibromoalkanes (60, 61) were heated with (triphenyl)phosphine in benzene at 80° C., and the obtained bromoalkyl(triphenyl)phosphonium bromides (62, 63) were reacted with fluorescein in the presence of sodium carbonate. As a result, bromides of {4-[2-(6-hydroxy-3-oxo-3H-xanthen-9-yl)benzoyloxy]butyl}(triphenyl)phosphonium (64) and {10-[2-(6-hydroxy-3-oxo-3H-xanthen-9-yl)benzoyloxy]decyl}(triphenyl)phosphonium (65).

[6] = neuroprotective and nephroprotective properties
Experimental: as §1

Question: Which “mitochondrial uncoupling (protonophore) activity” value (from here on “mitochondrial uncoupling”) [1] does the source give for `CCCCCCCCCCOC(=O)c1ccccc1-c1c2cc(C)/c(=N/CC)cc-2oc2cc(NCC)c(C)cc12` [Compound 28, decyl 2-[(3E)-6-(ethylamino)-3-(ethylimino)-2,7-dimethyl-3H-xanthen-9-yl]benzoate] here?
Answer: Its value is “soft cationic mitochondrial uncouplers (protonophores)”.

Question: Which “mitochondrial uncoupling” value [1] does the source give for `CCCCCCCCCCCCOC(=O)c1ccccc1-c1c2cc(C)/c(=N/CC)cc-2oc2cc(NCC)c(C)cc12` [Compound 29, dodecyl 2-[(3E)-6-(ethylamino)-3-(ethylimino)-2,7-dimethyl-3H-xanthen-9-yl]benzoate] here?
Answer: Its value is “soft cationic mitochondrial uncouplers (protonophores)”.

Question: With `COc1ccc2c(CC(=O)OCCCCCCCCCC3=CC(=O)C(C)=C(C)C3=O)c3[n+](cc2c1OC)CCc1cc2c(cc1-3)OCO2` [SkQBerb, 21-(2-{[9-(4,5-dimethyl-3,6-dioxocyclohexa-1,4-dien-1-yl)nonyl]oxy}-2-oxoethyl)-16,17-dimethoxy-5,7-dioxa-13λ^5-azapentacyclo[11.8.0.0^21.0.0^4.8.0^15.20]henicosa-1(21),2,4(8),9,13,15(20),16,18-octaen-13-ylium] as the compound, how does the “accumulation in isolated mitochondria or live human cells” value [2] read?
Answer: The value was “accumulate in isolated mitochondria or live cultures of human cells”.

Question: And the “inhibition of lipid peroxidation” value [3]?
Answer: Its value is “inhibit lipid peroxidation in isolated mitochondria in nanomolar concentrations”.

Question: And the prooxidant effect [4]?
Answer: The prooxidant effect was “manifested at significantly higher concentrations”.

Question: For `COc1cc2c(cc1OC)-c1c(CC(=O)OCCCCCCCCCC3=CC(=O)C(C)=C(C)C3=O)c3ccc(OC)c(OC)c3c[n+]1CC2` [SkQPalm, 13-(2-{[9-(4,5-dimethyl-3,6-dioxocyclohexa-1,4-dien-1-yl)nonyl]oxy}-2-oxoethyl)-3,4,10,11-tetramethoxy-7,8-dihydro-6λ^5-azatetraphen-6-ylium], which “accumulation in isolated mitochondria or live human cells” value [2] is on record?
Answer: Its value is “accumulate in isolated mitochondria or live cultures of human cells”.

Question: What about the “inhibition of lipid peroxidation” value [3] of the same compound?
Answer: Its value is “inhibit lipid peroxidation in isolated mitochondria in nanomolar concentrations”.

Question: What about the prooxidant effect [4] of the same compound?
Answer: Its prooxidant effect is “manifested at significantly higher concentrations”.

Question: With `CC/N=c1/cc2oc3cc(NCC)c(C)cc3c(-c3ccccc3C(=O)OCCCCCCCCCCC3=CC(=O)C(C)=C(C)C3=O)c-2cc1C.Cl` [SkQR1] as the compound, how does the “mitochondrial uncoupling” value [1] read?
Answer: The value was “soft cationic mitochondrial uncouplers (protonophores)”.

Question: For “{4-[2-(6-hydroxy-3-oxo-3H-xanthen-9-yl)benzoyloxy]butyl}(triphenyl)phosphonium [Compound 64]”, which uncoupler activity [5] is on record?
Answer: The uncoupler activity was “fluorescent uncouplers”.

Question: And the “neuroprotective and nephroprotective properties” value [6]?
Answer: Its value is “neuroprotective and nephroprotective properties”.

Question: Which results are given for “{10-[2-(6-hydroxy-3-oxo-3H-xanthen-9-yl)benzoyloxy]decyl}(triphenyl)phosphonium [Compound 65]”?
Answer: uncoupler activity [5]: fluorescent uncouplers; neuroprotective and nephroprotective properties [6]: neuroprotective and nephroprotective properties
